Test results as given in ChEMBL document CHEMBL1139791, “Highly efficient antitumor agents of heterocycles containing sulfur atom: linear and angular thiazonaphthalimides against human lung cancer cell in vitro” (Bioorg Med Chem, 2007).

Legend:
[1] = system: A549; assay: Cytotoxicity against human A549 cells after 72 hrs by sulforhodamine B dye assay; type: functional, cell-based; settings: A549, 72 h
[2] = system: P388; assay: Cytotoxicity against mouse P388 cells after 48 hrs by tetrazolium-formazan method; type: functional, cell-based; settings: P388, 48 h

SMILES	IC50 [1]	IC50 [2]
CN(C)CCCN1C(=O)c2cccc3c2c(cc2nc(N)sc23)C1=O	772 nM	1230 nM
CN(C)CCN1C(=O)c2cccc3cc4nc(N)sc4c(c23)C1=O	0.8 nM	5 nM
CN(C)CCN1C(=O)c2cccc3c2c(cc2nc(N)sc23)C1=O	500 nM	1030 nM
CN(C)CCCN1C(=O)c2cccc3cc4nc(N)sc4c(c23)C1=O	21.8 nM	294 nM
CN(C)CCN1C(=O)c2cccc3cc4ncsc4c(c23)C1=O	39.8 nM	83.9 nM
CN(C)CCN1C(=O)c2cccc3cc4nc(O)sc4c(c23)C1=O	45 nM	52.5 nM
CN(C)CCN1C(=O)c2cccc3cc4nc(Cl)sc4c(c23)C1=O	88 nM	18.5 nM
CN(C)CCNc1nc2cc3cccc4c3c(c2s1)C(=O)N(CCN(C)C)C4=O	30.6 nM	8.31 nM
